Assay results reported in patent US20130210907A1, “METHOD FOR PREVENTING OR TREATING ENTEROCHROMAFFIN CELL HYPERPLASIA-RELATED DISEASES BY QUERCETIN ADMINISTRATION” (HONG KONG BAPTIST UNIVERSITY, priority 2012, published 2013).
pIC50: −log10 of the molar value.

What was measured:
QGP-1 cells [1] = assay: Cell viability (MTT assay); type: cell-based; details: Homo sapiens
Protocol: To investigate the underlying mechanisms of Quercein on EC cell hyperplasia, a EC cell model, QGP-1 cell line is used as EC cell model. Human pancreatic carcinoma QGP-1 cells (JCRB0183, HSRRB, Japan) are cultured in RPMI 1640 supplemented with 10% fetal bovine serum, 100 IU/ml penicillin, and 100 μg/ml streptomycin in a humidified atmosphere of 95% air and 5% CO2 at 37° C. Cells are passaged using 0.025% trypsin and 0.01% EDTA. Cells are trypsinized and seeded in 96-well culture dishes at a density of 5,000-8,000 cells/well and cultured for 24 h or 48 h in the presence of Quercetin (0-100 μM, 0.01% DMSO).
3-(4,5-dimethylthiazol-2yl-)-2,5-diphenyl tetrazolium bromide (MTT) is used to evaluate cell viability. In this assay, cells are seeded in 96-well dishes and cultured for […] in the presence of Quercetin. Subsequently, the culture medium is replaced with 100 μl/well fresh medium containing 0.5 mg/ml MTT, and the cells are further incubated for 4 h at 37° C. The reaction is stopped by adding 100 μl/well 10% SDS in 0.1 M HCl, the absorbance of the plates is read at 570 nm The percent of cell survival is calculated by comparing the average absorbance of the Quercetin treated cells with the corresponding absorbance of the DMSO treated cells. All doses are tested in triplicates and repeated for at least three times.

PI-IBS rats [2] = assay: Electron microscopy of EC cell secretory granules after CRD; type: in vivo, rat; details: median dose
Protocol: For electron microscopy evaluation, the colon tissues are collected from the rats treated with AWR test so as to investigate the feature of mechanical stimulus-induced 5-HT release. Colon segment is fixed for 24 h at 4° C. in fixative containing 4% paraformaldehyde and 0.2% picric acid in 0.1M PB, then washed and embedded in gelatin. Thin sections are cut and picked up on 200-mesh grids. The sections are stained with uranyl acetate and lead citrate. Examination and photography of sections are carried out using Philips CM 10 transmission electron microscope (Philips Scientifics, Netherlands). At the ultra-structural level, EC cell are distinguished from other enteroendocrine cells by the pleomorphic nature of their secretory granules. The EC cells in which there are many clear secretory granules without cores and granules with eccentric cores are considered as the activated one with excessive 5-HT release.

PI-IBS rats [3] = assay: Colonic EC cell counting (silver staining); type: in vivo, rat; details: for EC cell density: PI-IBS rats, colon
Protocol: Six groups of 5 rats are tested. The groups setting and treatments are as described in Example 1. Different from Example 1, AWR test are not applied to the rats in this experiment in order to obtain the basal data without CRD stimulus. After the last drug administration, a 6 cm proximal colon (1-2 cm from caecum) is collected and divided into 3 parts, the proximal is fixed in 4% paraformaldehyde and embedded in paraffin for EC cell staining; the middle part is collected for 5-HT content measurement and electron microscopic evaluation, and the distal part is for western blotting analysis.
Tissue sections (5-μm thick) are deparaffinized and rehydrated for silver staining. Briefly, sections are incubated with 5% ammoniacal silver solution for 4 h at room temperature, then 2 h in 56° C. and subsequently 12 h at room temperature in a dark humidified chamber. After rinsing with water, 5% sodium hyposulfite is added and the tissue sections are incubated for 5 min at room temperature. The brown to black silver precipitate in the cytoplasm of EC cells represents as a positive reaction. A researcher blinded to treatment counted 5 random fields at 200× magnifications for each section, and the number of EC cells per mm^2 of mucosa is quantified using Image J NIH software.

QGP-1 cells [4] = assay: Cytotoxicity by lactate dehydrogenase (LDH) release; type: cell-based, human; details: QGP-1, 25-100 μM, 24 h
Protocol: The cytotoxicity of Quercetin is determined by lactate dehydrogenase (LDH) assay in QGP-1 cells. Cells are seeded at a density of 5,000 cells/well into 96-well plates and incubated with Quercetin (0-100 μM, 0.01% DMSO) for 24 h. Release of cytoplasmic enzyme lactate dehydrogenase is measured after incubation by using colorimetric assay kit (Roche Molecular Biochemicals, Germany) according to the manufacturer's instructions.

## O=c1c(O)c(-c2ccc(O)c(O)c2)oc2cc(O)cc(O)c12 [Quercetin, 2-(3,4-dihydroxyphenyl)-3,5,7-trihydroxy-4H-chromen-4-one]
QGP-1 cells [1]; QGP-1, 24 h, at about 100 μM, read-out: Reduction of cell viability in comparison with the control
  cytotoxicity at 100 µM: ~50%
QGP-1 cells [1]; QGP-1, 48 h incubation
  pIC50: ~4.30
PI-IBS rats [2]
  Secretory granules of EC cells compared to PI-IBS rats (electron micrographs): became denser
PI-IBS rats [3]; 5 mg/kg i.g.
  EC cell density: 89 ± 5 Number/mm^2
PI-IBS rats [3]; 10 mg/kg i.g.
  EC cell density: 72 ± 7 Number/mm^2
PI-IBS rats [3]; 20 mg/kg i.g.
  EC cell density: 105 ± 8 Number/mm^2
PI-IBS rats [3]; low dose (5 mg/kg)
  Decrease of EC cells number compared with the PI-IBS group: 18%
PI-IBS rats [3]; median dose (10 mg/kg)
  Decrease of EC cells number compared with the PI-IBS group: 42%
QGP-1 cells [4]
  LDH release: significant and dose-dependent increase
